Laboratory results from patent US10758534B2 (Vertex Pharmaceuticals Incorporated, priority 2014, dated 2020).

biological target: T1, F508del (Homo sapiens, UniProt P13569, DEL508-508); assay: Protocol 1: membrane potential optical assay (FLIPR III, voltage sensing dye), identification of potentiator compounds; format: cell-based; details: Table 3, compounds of Table 1
T1 construct: expressed in transfected cells
How it was run: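 Membrane potential in forskolin-activated, temperature-rescued F508del NIH 3T3 cells is followed with a voltage-sensing dye on FLIPR III. A chloride ion gradient created at the single addition step provides the driving force, after prior compound treatment.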

T1 sequence (P13569 with tags, fused parts or gaps DEL508-508): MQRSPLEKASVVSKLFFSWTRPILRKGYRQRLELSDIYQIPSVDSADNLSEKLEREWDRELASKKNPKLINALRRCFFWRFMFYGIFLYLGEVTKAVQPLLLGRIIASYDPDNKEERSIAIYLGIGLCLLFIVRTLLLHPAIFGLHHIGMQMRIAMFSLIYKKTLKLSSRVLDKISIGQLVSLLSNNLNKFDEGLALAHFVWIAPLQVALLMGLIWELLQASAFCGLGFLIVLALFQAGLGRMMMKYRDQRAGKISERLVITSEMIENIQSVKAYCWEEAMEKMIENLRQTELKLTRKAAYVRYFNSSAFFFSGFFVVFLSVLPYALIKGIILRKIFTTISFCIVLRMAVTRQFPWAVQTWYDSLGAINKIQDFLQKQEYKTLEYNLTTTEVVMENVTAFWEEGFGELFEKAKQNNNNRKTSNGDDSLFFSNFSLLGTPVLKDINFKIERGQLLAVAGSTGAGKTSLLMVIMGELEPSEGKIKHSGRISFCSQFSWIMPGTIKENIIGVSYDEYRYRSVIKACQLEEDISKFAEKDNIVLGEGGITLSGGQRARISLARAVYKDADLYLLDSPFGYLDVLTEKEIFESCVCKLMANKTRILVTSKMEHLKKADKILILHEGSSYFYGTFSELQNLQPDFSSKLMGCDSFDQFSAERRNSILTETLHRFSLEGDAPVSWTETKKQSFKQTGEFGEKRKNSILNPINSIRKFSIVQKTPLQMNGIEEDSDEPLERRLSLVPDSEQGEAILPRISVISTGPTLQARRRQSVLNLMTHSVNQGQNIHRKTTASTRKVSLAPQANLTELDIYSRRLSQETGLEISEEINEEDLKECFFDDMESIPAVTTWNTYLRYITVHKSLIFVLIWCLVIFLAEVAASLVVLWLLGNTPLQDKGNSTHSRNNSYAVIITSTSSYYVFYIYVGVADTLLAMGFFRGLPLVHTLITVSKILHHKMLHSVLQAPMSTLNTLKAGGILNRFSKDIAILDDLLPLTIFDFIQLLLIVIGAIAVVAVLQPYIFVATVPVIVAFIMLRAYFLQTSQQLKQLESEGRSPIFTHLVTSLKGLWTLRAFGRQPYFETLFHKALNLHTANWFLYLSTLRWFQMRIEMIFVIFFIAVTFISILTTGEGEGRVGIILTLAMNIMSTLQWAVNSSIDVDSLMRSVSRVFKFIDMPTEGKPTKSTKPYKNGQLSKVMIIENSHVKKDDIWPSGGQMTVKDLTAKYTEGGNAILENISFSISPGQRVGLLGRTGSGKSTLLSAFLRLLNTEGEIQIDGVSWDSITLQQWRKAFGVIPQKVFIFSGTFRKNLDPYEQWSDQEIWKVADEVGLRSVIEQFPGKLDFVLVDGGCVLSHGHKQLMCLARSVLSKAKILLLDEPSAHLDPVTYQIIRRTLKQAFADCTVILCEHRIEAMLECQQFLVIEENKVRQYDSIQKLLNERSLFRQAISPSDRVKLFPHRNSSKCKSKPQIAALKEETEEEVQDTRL

SMILES	EC30
C[C@@H]1CN(c2nc(-c3cccc(F)c3)ccc2C(=O)NS(=O)(=O)c2ccc[nH]c2=O)C(C)(C)C1 [Compound 1925, 6-(3-fluorophenyl)-N-[(2-oxo-1H-pyridin-3-yl)sulfonyl]-2-[(4S)-2,2,4-trimethylpyrrolidin-1-yl]pyridine-3-carboxamide]	+++ (“+++” means <3 uM)
COc1cccc(-c2ccc(C(=O)NS(=O)(=O)c3ccc[nH]c3=O)c(N3C[C@@H](C)CC3(C)C)n2)c1 [Compound 1927, 6-(3-methoxyphenyl)-N-[(2-oxo-1H-pyridin-3-yl)sulfonyl]-2-[(4S)-2,2,4-trimethylpyrrolidin-1-yl]pyridine-3-carboxamide]	+++ (“+++” means <3 uM)
CC(C)COc1cc(F)cc(-c2ccc(C(=O)NS(=O)(=O)c3cccc(N)n3)c(N3CCC3(C)C)n2)c1 [Compound 1928, N-[(6-amino-2-pyridyl)sulfonyl]-2-(2,2-dimethylazetidin-1-yl)-6-(3-fluoro-5-isobutoxy-phenyl)pyridine-3-carboxamide]	++ (“++” means between 3 uM and 10 uM)
Cc1cc(-c2ccc(C(=O)NS(=O)(=O)c3cccc(N)n3)c(N3C[C@@H](C)CC3(C)C)n2)ccc1F [Compound 1930, N-[(6-amino-2-pyridyl)sulfonyl]-6-(4-fluoro-3-methyl-phenyl)-2-[(4S)-2,2,4-trimethylpyrrolidin-1-yl]pyridine-3-carboxamide]	+++ (“+++” means <3 uM)
CCOc1cc(-c2ccc(C(=O)NS(=O)(=O)c3cccc(N)n3)c(N3C[C@@H](C)CC3(C)C)n2)cc(C)c1C [Compound 1931, N-[(6-amino-2-pyridyl)sulfonyl]-6-(3-ethoxy-4,5-dimethyl-phenyl)-2-[(4S)-2,2,4-trimethylpyrrolidin-1-yl]pyridine-3-carboxamide]	+++ (“+++” means <3 uM)
C[C@@H]1CN(c2nc(-c3cccc(OC(F)(F)F)c3)ccc2C(=O)NS(=O)(=O)c2ccc[nH]c2=O)C(C)(C)C1 [Compound 1934, N-[(2-oxo-1H-pyridin-3-yl)sulfonyl]-6-[3-(trifluoromethoxy)phenyl]-2-[(4S)-2,2,4-trimethylpyrrolidin-1-yl]pyridine-3-carboxamide]	+++ (“+++” means <3 uM)
CC(C)COc1cc(F)cc(-c2ccc(C(=O)NS(=O)(=O)N[C@H]3CCNC3)c(N3C[C@@H](C)CC3(C)C)n2)c1 [Compound 1935, 6-(3-fluoro-5-isobutoxy-phenyl)-N—[[(3S)-pyrrolidin-3-yl]sulfamoyl]-2-[(4S)-2,2,4-trimethylpyrrolidin-1-yl]pyridine-3-carboxamide]	+++ (“+++” means <3 uM)
CC1CN(c2ncccc2C(=O)NS(=O)(=O)c2cccc(OC3(C)CCCC3)n2)C(C)(C)C1 (stereo not drawn) [Compound 1936, N—[[6-(1-methylcyclopentoxy)-2-pyridyl]sulfonyl]-2-(2,2,4-trimethylpyrrolidin-1-yl)pyridine-3-carboxamide]	+++ (“+++” means <3 uM)
CCOc1ccc(-c2ccc(C(=O)NS(=O)(=O)c3cccnc3N)c(N3C[C@@H](C)CC3(C)C)n2)cc1 [Compound 1945, N-[(2-amino-3-pyridyl)sulfonyl]-6-(4-ethoxyphenyl)-2-[(4S)-2,2,4-trimethylpyrrolidin-1-yl]pyridine-3-carboxamide]	+++ (“+++” means <3 uM)

Next, values leading:

EC30	SMILES
+++ (“+++” means <3 uM)	CC1CN(c2ncccc2C(=O)NS(=O)(=O)c2cccc(Oc3cccc(C(C)(C)C)c3)n2)C(C)(C)C1 (stereo not drawn) [Compound 1926, N—[[6-(3-tert-butylphenoxy)-2-pyridyl]sulfonyl]-2-(2,2,4-trimethylpyrrolidin-1-yl)pyridine-3-carboxamide]
+++ (“+++” means <3 uM)	CC1CN(c2ncccc2C(=O)NS(=O)(=O)c2cccc(OCc3ccc(Cl)cc3Cl)n2)C(C)(C)C1 (stereo not drawn) [Compound 1929, N—[[6-[(2,4-dichlorophenyl)methoxy]-2-pyridyl]sulfonyl]-2-(2,2,4-trimethylpyrrolidin-1-yl)pyridine-3-carboxamide]
+++ (“+++” means <3 uM)	CC1CN(c2ncccc2C(=O)NS(=O)(=O)c2cccc(N3CCCCCC3)n2)C(C)(C)C1 (stereo not drawn) [Compound 1932, N—[[6-(azepan-1-yl)-2-pyridyl]sulfonyl]-2-(2,2,4-trimethylpyrrolidin-1-yl)pyridine-3-carboxamide]
+++ (“+++” means <3 uM)	CC1CN(c2ncccc2C(=O)NS(=O)(=O)c2cccc(Nc3cc4ccccc4cn3)n2)C(C)(C)C1 (stereo not drawn) [Compound 1933, N—[[6-(3-isoquinolylamino)-2-pyridyl]sulfonyl]-2-(2,2,4-trimethylpyrrolidin-1-yl)pyridine-3-carboxamide]
++ (“++” means between 3 uM and 10 uM)	CC1CN(c2ncccc2C(=O)NS(=O)(=O)c2cccc(N3CCN(CC4OCCO4)CC3)n2)C(C)(C)C1 (stereo not drawn) [Compound 1937, N—[[6-[4-(1,3-dioxolan-2-ylmethyl)piperazin-1-yl]-2-pyridyl]sulfonyl]-2-(2,2,4-trimethylpyrrolidin-1-yl)pyridine-3-carboxamide]
+++ (“+++” means <3 uM)	CC1CN(c2ncccc2C(=O)NS(=O)(=O)c2cccc(NCc3ccccc3)n2)C(C)(C)C1 (stereo not drawn) [Compound 1938, N—[[6-(benzylamino)-2-pyridyl]sulfonyl]-2-(2,2,4-trimethylpyrrolidin-1-yl)pyridine-3-carboxamide]
++ (“++” means between 3 uM and 10 uM)	CC1CN(c2ncccc2C(=O)NS(=O)(=O)c2cccc(OCC3CCCCO3)n2)C(C)(C)C1 (stereo not drawn) [Compound 1939, N—[[6-(tetrahydropyran-2-ylmethoxy)-2-pyridyl]sulfonyl]-2-(2,2,4-trimethylpyrrolidin-1-yl)pyridine-3-carboxamide]
+++ (“+++” means <3 uM)	COc1cccc(CN(C)c2cccc(S(=O)(=O)NC(=O)c3cccnc3N3CC(C)CC3(C)C)n2)c1 (stereo not drawn) [Compound 1940, N—[[6-[(3-methoxyphenyl)methyl-methyl-amino]-2-pyridyl]sulfonyl]-2-(2,2,4-trimethylpyrrolidin-1-yl)pyridine-3-carboxamide]
+++ (“+++” means <3 uM)	CC1CN(c2ncccc2C(=O)NS(=O)(=O)c2cccc(Nc3cc(F)ccc3Cl)n2)C(C)(C)C1 (stereo not drawn) [Compound 1941, N—[[6-(2-chloro-5-fluoro-anilino)-2-pyridyl]sulfonyl]-2-(2,2,4-trimethylpyrrolidin-1-yl)pyridine-3-carboxamide]
++ (“++” means between 3 uM and 10 uM)	C[C@@H]1CN(c2nc(C3=CCCN(S(=O)(=O)N4CCCCC4)C3)ccc2C(=O)NS(=O)(=O)c2cccc(N)n2)C(C)(C)C1 [Compound 1942, N-[(6-amino-2-pyridyl)sulfonyl]-6-[1-(1-piperidylsulfonyl)-3,6-dihydro-2H-pyridin-5-yl]-2-[(4S)-2,2,4-trimethylpyrrolidin-1-yl]pyridine-3-carboxamide]
++ (“++” means between 3 uM and 10 uM)	COCCOCc1cccc(-c2cnc(N3CC(C)CC3(C)C)c(C(=O)NS(=O)(=O)c3cccc(N)n3)c2)c1 (stereo not drawn) [Compound 1943, N-[(6-amino-2-pyridyl)sulfonyl]-5-[3-(2-methoxyethoxymethyl)phenyl]-2-(2,2,4-trimethylpyrrolidin-1-yl)pyridine-3-carboxamide]
+++ (“+++” means <3 uM)	Cc1c(F)cccc1-c1ccc(C(=O)NS(=O)(=O)c2cccnc2N)c(N2C[C@@H](C)CC2(C)C)n1 [Compound 1944, N-[(2-amino-3-pyridyl)sulfonyl]-6-(3-fluoro-2-methyl-phenyl)-2-[(4S)-2,2,4-trimethylpyrrolidin-1-yl]pyridine-3-carboxamide]
